Tests used:
[1] = Crossing of the blood/brain barrier; design: species or system human; settings: in vivo
[2] = Part I: multiple rising oral dose pharmacokinetics of NC-758 in healthy young and elderly subjects (Example 8); assay type: in vivo, human; settings: fasted; for Tmax: median
From the text: (§1) In the following examples and elsewhere herein, terms are as defined below. The pharmacokinetic parameters were derived by non-compartmental analysis using WinNonlin Version 2.1. • Cmax—the maximum observed plasma concentration. • Tmax—the time of occurrence of Cmax. • AUC0-t—the area under the plasma concentration versus time curve from time zero to the last sampling time at which concentrations were at or above the limit of quantification, calculated by the linear trapezoidal rule. • AUC∞—the area under the plasma concentrations versus time curve from time zero to infinity, calculated from AUC0-t+(Clast/λz), where Clast is the last observed quantifiable concentration and λz is the apparent terminal rate constant. • t1/2—the apparent terminal half-life, calculated from 1n 2λz.
The pharmacokinetic profile of multiple rising oral doses of 3-APS free acid (NC-758 of Table 3 above) in healthy male young subjects (18-45 years) and healthy male and female elderly (≧55 years) subjects was assessed. The pharmacokinetic profile of a titrated multiple oral rising dose regimen of NC-758 was also assessed in one group of healthy male young (18-45 years) subjects. […] Part I was a randomized, double-blind, placebo-controlled study to assess the pharmacokinetic profile of 2 multiple rising oral doses of NC-758 in healthy young (18-45 years) male subjects. […] In Part I, blood samples were collected through 24 h after the first dose on Day 1, before each morning dose on Days 2 to 11, and through 48 h after the final dose on Day 12. For Part II, blood samples were collected through 36 and 48 h, respectively. Plasma concentrations of 3-APS were determined using a validated LC-MS/MS method.

[3] = Pharmacokinetics of NC-758-1 in mild to moderate Alzheimer's Disease patients, 12 weeks BID (Example 10); assay type: in vivo; settings: human, plasma, oral, AD patients; for AUC(0-inf): only patients with estimable elimination rate constant; for Tmax: median
From the text: as §1
A multicenter, randomized, double-blind, placebo-controlled and parallel designed study has been completed with NC-758-1 from Table 5 above in patients suffering from mild to moderate Alzheimer's Disease (AD). This study included assessing the pharmacokinetic/pharmacodynamic profile in AD patients.
A total of fifty-eight (58) mild to moderate AD patients (MMSE scores=13 to 26) were enrolled from 6 centers in the United States. Patients were randomized to receive in 1:1:1:1 ratio of NC-758-1 at 50, […], 150 mg BID or placebo BID for 12 weeks. Study medication was administered orally (tablet). Each patient was evaluated on 6 occasions at screening, baseline [Week 0], weeks 2, 4, 8 and 12. Blood samples were collected from each patient prior to dosing and at specified time points through 12 h post-dose after the first dose (Week 0) and the last dose (Week 12). Blood samples were also collected prior to the first dose of the day during Week 2, 4 and 8 visits.

CSF Aβ42 = CSF Aβ42 and Aβ42/Aβ40 ratio in mild-to-moderate AD patients; assay type: in vivo, human
Description: FIG. 1 Change from Baseline CSF Aβ42 versus 3-APS doses
FIG. 2 Effect of 3-APS on CSF Aβ42/40 Ratio in Mild-to-Moderate AD Patients—Placebo vs. 150 mg BID

[4] = dog, in vivo
Description: (§2) Furthermore, the non-hygroscopic nature of the acid form makes it desirable as active pharmaceutical ingredient. To further protect against any possible gastrointestinal intolerance that could result from the acid form, the tablets were enteric-coated and a modified-release agent was added to control any rapid release of the drug in the stomach and the intestine, respectively.

[5] = Single rising oral dose pharmacokinetics of NC-758 in healthy young and elderly male volunteers (Example 7); assay type: in vivo, human; settings: for Tmax: median
From the text: as §1
The pharmacokinetic profile and the effect of food on single rising oral doses of 3-APS free acid (modified-release enteric-coated tablet, as described in Table 3 above, hereinafter “NC-758”) in healthy male young (18-45 years) volunteers was determined. The pharmacokinetics of a single oral dose of NC-758 was also determined in a group of healthy male elderly (≧55 years old) volunteers. The test was a randomized, double-blind, placebo-controlled study to assess the pharmacokinetic profile of 4 single rising oral doses of NC-758 in healthy young (18-45 years) male subjects. Blood samples were collected during 24 h following dosing. Plasma concentrations of 3-APS were determined using a validated LC-MS/MS method.

[6] = Hygroscopic nature of the active ingredient; assay type: physicochemical
[7] = Pharmacokinetics of NC-758-1 in mild to moderate Alzheimer's Disease patients, 12 weeks BID (Example 10); assay type: in vivo; settings: human, plasma, oral, AD patients; for Tmax: median
[8] = Single oral dose pharmacokinetics of NC-758-1 in healthy elderly volunteers (Example 9); assay type: in vivo, human; settings: elderly (≧55 years) male and female subjects, fasted; for Tmax: median
From the text: as §1
The pharmacokinetic profile and the effect of food on single oral doses of 3-APS free acid (modified-release enteric-coated tablet as described in Table 5 above, hereinafter “NC-758-1”) in healthy male and female elderly (≧55 years) volunteers. The test was an open label, three-period crossover study to assess the pharmacokinetic profile of 3 single oral doses of NC-758-1 in healthy elderly (≧55 years) male and female subjects. The blood samples were collected during 24 h following dosing. Plasma concentrations of 3-APS were determined using a validated LC-MS/MS method.

[9] = Gastrointestinal symptoms after administration of solid dosage form (capsules); assay type: in vivo
Description: as §2

[10] = 50 mg, Alzhemed (NC-758-1) 50 mg BID, Week 0 (single dose), mean
[11] = 150 mg, Alzhemed (NC-758-1) 150 mg BID, Week 0 (single dose), mean
[12] = 200 mg dose, elderly vs. young (Tables 9 and 10)

In the case of `NCCCS(=O)(=O)O` [3-APS, 3-amino-1-propanesulfonic acid], the “crossing of the blood/brain barrier” value [1] is reported as “crossed the blood/brain barrier”, the Tmax ([2]; NC-758 200 mg BID, Day 1, elderly (≧55 years) male and female subjects) is reported as 6 h and the Tmax ([2]; NC-758 200 mg BID, Day 12, young (18-45 years) male subjects) is reported as 4 h. For the same compound, the Tmax ([2]; both sexes, human, plasma, oral, 200 mg, NC-758 200 mg BID, Day 12, elderly (≧55 years) male and female subjects, read-out: Tmax) was 5 h, the AUC(0-t) ([2]; human, plasma, oral, NC-758 100 mg BID, Day 1, young (18-45 years) male subjects, mean, read-out: AUC0-12 h) was 1330 ng·h/mL and the Tmax ([2]; male, human, plasma, oral, 100 mg, NC-758 100 mg BID, Day 1, young (18-45 years) male subjects, read-out: Tmax) was 6 h. It also gave a Tmax ([2]; male, human, plasma, oral, 100 mg, NC-758 100 mg BID, Day 12, young (18-45 years) male subjects, read-out: Tmax) of 2.5 h, a Tmax ([2]; male, human, plasma, oral, 200 mg, NC-758 200 mg BID, Day 1, young (18-45 years) male subjects, read-out: Tmax) of 4 h and an AUC(0-t) [3, 10] of roughly 1320 ng·h/mL. For the same compound, the Cmax [3, 10] was roughly 310 ng/mL, the AUC(0-inf) [3, 10] was roughly 1400 ng·h/mL and the Tmax ([3]; 50 mg, Alzhemed (NC-758-1) 50 mg BID, Week 0 (single dose)) was roughly 6 h. For the same compound, the Cmax [3, 11] was roughly 624 ng/mL, the AUC(0-inf) [3, 11] was roughly 3420 ng·h/mL and the Tmax ([3]; 150 mg, Alzhemed (NC-758-1) 150 mg BID, Week 0 (single dose)) was roughly 6 h. For the same compound, the Cmax ([3]; 150 mg, Alzhemed (NC-758-1) 150 mg BID, Week 12 (repeated), mean) was 639 ng/mL, the “ratio of Aβ42/Aβ40” value (CSF Aβ42; CSF, mild-to-moderate AD patients, FIGS. 2, 3 and 4) was “reduced the ratio of Aβ42/Aβ40” and the “baseline CSF Aβ42” value (CSF Aβ42; FIG. 1) was “reduced baseline CSF Aβ42”. The tolerability [4] was “better tolerated than the sodium salt form”, the “AUC0-t greater in elderly subjects compared to young subjects” value [5, 12] was “approximately 70%” and the “Cmax greater in elderly subjects compared to young subjects” value [5, 12] was “approximately 70%”. For the same compound, the Tmax ([5]; NC-758 single oral 200 mg, elderly (>55 years) male subjects, fasted) was 5 h, the Tmax ([5]; NC-758 single oral 200 mg, young (18-45 years) male subjects, fasted) was 5 h and the Tmax ([5]; NC-758 single oral 300 mg, young (18-45 years) male subjects, fasted) was 5 h. For the same compound, the Tmax ([5]; human, plasma, NC-758 single oral 100 mg, young (18-45 years) male subjects, fasted, read-out: Tmax) was 5 h, the AUC(0-inf) ([5]; human, plasma, NC-758 single oral 200 mg, elderly (>55 years) male subjects, fasted, calculated for one individual only) was 5760 ng·h/mL and the hygroscopic nature [6] was “non-hygroscopic”. For the same compound, the Cmax ([7]; 50 mg, Alzhemed (NC-758-1) 50 mg BID, Week 12 (repeated), mean) was 451 ng/mL, the AUC(0-t) ([7]; 50 mg, Alzhemed (NC-758-1) 50 mg BID, Week 12 (repeated), mean, read-out: AUC0-t (AUCss for Week 12)) was 1980 ng·h/mL and the Tmax ([7]; 50 mg, Alzhemed (NC-758-1) 50 mg BID, Week 12 (repeated)) was 3 h. For the same compound, the Cmax ([7]; 100 mg, Alzhemed (NC-758-1) 100 mg BID, Week 0 (single dose), mean) was roughly 618 ng/mL, the AUC(0-inf) ([7]; 100 mg, Alzhemed (NC-758-1) 100 mg BID, Week 0 (single dose), mean, only patients with estimable elimination rate constant) was roughly 2570 ng·h/mL and the AUC(0-t) ([7]; 100 mg, Alzhemed (NC-758-1) 100 mg BID, Week 0 (single dose), mean, read-out: AUC0-t) was roughly 2470 ng·h/mL. The Tmax ([7]; 100 mg, Alzhemed (NC-758-1) 100 mg BID, Week 0 (single dose)) was roughly 4.7 h, the Cmax ([7]; 100 mg, Alzhemed (NC-758-1) 100 mg BID, Week 12 (repeated), mean) was 538 ng/mL and the AUC(0-t) ([7]; 100 mg, Alzhemed (NC-758-1) 100 mg BID, Week 12 (repeated), mean, read-out: AUC0-t (AUCss for Week 12)) was 2590 ng·h/mL. It also gave a Tmax ([7]; 100 mg, Alzhemed (NC-758-1) 100 mg BID, Week 12 (repeated)) of 3.5 h, an AUC(0-t) ([7]; 150 mg, Alzhemed (NC-758-1) 150 mg BID, Week 0 (single dose), mean, read-out: AUC0-t) of roughly 2790 ng·h/mL and an AUC(0-t) ([7]; 150 mg, Alzhemed (NC-758-1) 150 mg BID, Week 12 (repeated), mean, read-out: AUC0-t (AUCss for Week 12)) of 3570 ng·h/mL. The Tmax ([7]; 150 mg, Alzhemed (NC-758-1) 150 mg BID, Week 12 (repeated)) was 3 h, the Tmax ([8]; NC-758-1 single oral 50 mg) was 5 h and the Tmax ([8]; NC-758-1 single oral 100 mg) was 5 h. The “AUC∞” value ([8]; NC-758-1 single oral 150 mg, mean, only subjects with estimable elimination rate constant) was 4497 ng·h/mL and the Tmax ([8]; NC-758-1 single oral 150 mg) was 5 h.

In the case of `NCCCS(=O)(=O)[O-].[Na+]` [3-amino-1-propanesulfonic acid, sodium salt], the “gastrointestinal symptoms (i.e. nausea and vomiting)” value [9] is reported as “associated with gastrointestinal symptoms”.

— patent US8835500B2, “Pharmaceutical formulations of amyloid inhibiting compounds” (BHI Limited Partership, priority 2003, dated 2014)
